Reference: publication PMC8497620, “Structure and inhibition of Cryptococcus neoformans sterylglucosidase to develop antifungal agents” (Nature Communications, 2021)
“And” between values parts separate entries of the source, which are not always exact repeats. Identical values can stand only once. Like-named read-outs stand apart in the source and are kept apart here.

Columns and labels:
C. neoformans H99 [1] = test: Mouse model of cryptococcosis, intraperitoneal treatment (CBA/J mice); format: in vivo, Cryptococcus neoformans; settings: 10 mg/kg/day intraperitoneally; for CFU recovered from the brain: 14 days after infection; for lung CFU compared to vehicle-treated mice: days 3, 6, 9, 14; for Lung (CFU/mL): 10 mg/kg/day
Experimental: (§1) For animal studies, 4-week-old CBA/J (Envigo) female mice were used. Mouse experiments were performed in full compliance with a protocol approved by Stony Brook University (IACUC number 341588) and in compliance with the United States Animal Welfare Act (Public Law 98–198). The experiments were carried out in facilities accredited by the Association for Assessment and Accreditation of Laboratory Animal Care. Mice were divided into sets of 12 mice for each treatment or control group (4 animals per cage) kept in an animal room (temperature, 22–24 °C; relative humidity, 35–45%) with artificial 12–12 h dark/light cycle. For the experiment with intraperitoneal (i.p.) treatment, mice were infected intranasally with 10 µL of a suspension containing 1 × 10^6 C. neoformans H99 cells and subsequently treated through i.p. injection with 10 mg/kg/day of hit 1 in a final volume of 100 µL of vehicle containing 10% PEG 200 in PBS. The untreated animals received 100 µL of vehicle. For the experiment with intranasal (i.n.) treatment, mice were infected with 1 × 10^5 C. neoformans H99 cells and received i.n. treatment with hit 1 in a final volume of 10 µL. Another group received treatment with 10 mg/kg/day of fluconazole i.p. and a third group received the combined treatment of hit1 by i.n. and fluconazole by i.p. Animals receiving only vehicle i.n. were used as a control group. In both experiments, three mice of each group were euthanized at day 3, 6, 9, and 14 post infection for CFU recovery from lungs and CFU recovery from brain on day 14.

C. neoformans H99 [2] = format: in vivo, Cryptococcus neoformans; settings: Hit 1 intranasally, fluconazole intraperitoneally; for brain dissemination / CFU recovered from the brain: 14 days; for Lung (CFU/mL): 10 mg/kg/day
Experimental: as §1

[3] = day 14 post infection, 10 mg/kg/day each

COc1cccc(-c2ncc(CN3CCC(O)(CO)CC3)s2)c1 [Hit 1] was tested, and the “CFU recovered from the brain” value (C. neoformans H99 [1]) was “no CFU were recovered from the brain”, the “CFU recovered from the brain” value (C. neoformans H99 [1]; listed as hit 1) was “No yeast cells were recovered from the brain” and the “lung CFU compared to vehicle-treated mice” value (C. neoformans H99 [1]) was “did not reduce lung colony-forming units”. The “lung CFU compared to vehicle-treated mice” value (C. neoformans H99 [1]; listed as hit 1) was “no significant difference among untreated and treated mice”, the “Lung (CFU/mL)” value (C. neoformans H99 [1]; day 3 post infection) was 1200000 CFU/mL and 1520000 CFU/mL and 1480000 CFU/mL and the “Lung (CFU/mL)” value (C. neoformans H99 [1]; day 9 post infection) was 25000000 CFU/mL and 14200000 CFU/mL and 19700000 CFU/mL. The “Brain (CFU/mL)” value (C. neoformans H99 [1]; day 14 post infection) was 0 CFU/mL, the “Lung (CFU/mL)” value (C. neoformans H99 [1]; day 14 post infection) was 28600000 CFU/mL and 29600000 CFU/mL and 22000000 CFU/mL and the “brain dissemination / CFU recovered from the brain” value (C. neoformans H99 [2]) was “no CFU recovered from the brain”. The “brain dissemination / CFU recovered from the brain” value (C. neoformans H99 [2]; listed as hit 1) was “no brain dissemination of yeast cells”, the “Lung (CFU/mL)” value (C. neoformans H99 [2]; day 9 post infection, 10 mg/kg/day each) was 950000 CFU/mL and 1400000 CFU/mL and 780000 CFU/mL and the “Brain (CFU/mL)” value (C. neoformans H99 [2]; [3]) was 0 CFU/mL. For the same molecule, the “Lung (CFU/mL)” value (C. neoformans H99 [2]; [3]) was 3880000 CFU/mL and 3700000 CFU/mL and 3100000 CFU/mL.
